Target: T1, human Trk A kinase (Homo sapiens, UniProt P04629)
T1 construct: HIS; made in house; host or cells: SF9 insect cells
Assay: Trk A kinase Alphascreen assay
Type: biochemical
Conditions: intracellular domain of HIS-tagged human Trk A (aa 442-796), 70 μM ATP, 20 minutes, room temperature; read-out: Trk A inhibitory activity IC50
Procedure: Trk A kinase activity was measured for its ability to phosphorylate synthetic tyrosine residues within a generic polypeptide substrate using an Amplified Luminescent Proximity Assay (Alphascreen) technology (PerkinEilmer, 549 Albany Street, Boston, Mass.).
To measure Trk A kinase activity, the intracellular domain of a HIS-tagged human Trk A kinase (amino acids 442-796 of Trk A, Swiss-Prot Primary Accession Number P04629) was expressed in SF9 cells and purified using standard nickel column chromatography. After incubation of the kinase with a biotinylated substrate and adenosine triphosphate (ATP) for 20 minutes at room temperature, the kinase reaction was stopped by the addition of 30 mM ethylenediaminetetraacetic acid (EDTA). The reaction was performed in 384 well microtitre plates and the reaction products were detected with the addition of strepavidin coated Donor Beads and phosphotyrosine-specific antibodies coated Acceptor Beads using the EnVision Multilabel Plate Reader after an overnight incubation at room temperature.

T1 sequence (P04629 442-796): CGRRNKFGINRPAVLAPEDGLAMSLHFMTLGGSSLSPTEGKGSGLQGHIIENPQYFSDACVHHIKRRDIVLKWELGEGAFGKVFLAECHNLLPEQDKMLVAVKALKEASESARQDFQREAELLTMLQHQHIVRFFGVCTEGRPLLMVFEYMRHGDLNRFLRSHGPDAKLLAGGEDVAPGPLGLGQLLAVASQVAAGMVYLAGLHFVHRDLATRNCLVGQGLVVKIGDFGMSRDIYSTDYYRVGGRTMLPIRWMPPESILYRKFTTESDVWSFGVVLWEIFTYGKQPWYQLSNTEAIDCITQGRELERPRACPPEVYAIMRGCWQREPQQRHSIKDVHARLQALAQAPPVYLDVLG

Row | Compound | IC50 [nM]
1 | C[C@H](Nc1cc(Nc2cc(C3CC3)[nH]n2)c([N+](=O)[O-])cc1F)c1ccc(F)cc1 [Example 13, (S)—N^1-(5-Cyclopropyl-1H-pyrazol-3-yl)-4-fluoro-N^3-(1-(4-fluorophenyl)ethyl)-6-nitrobenzene-1,3-diamine] | 426
2 | C[C@H](Nc1cc(NCCO)c([N+](=O)[O-])c(Nc2cc(C3CC3)[nH]n2)c1)c1ccc(F)cc1 [Example 17, (S)-2-(3-(5-Cyclopropyl-1H-pyrazol-3-ylamino)-5-(1-(4-fluorophenyl)ethylamino)-2-nitrophenylamino)ethanol] | 1240
3 | N#Cc1cc([N+](=O)[O-])c(Nc2cc(C3CC3)[nH]n2)cc1N[C@@H](CO)c1ccc(F)cc1 [Example 10, (R)-4-(5-Cyclopropyl-1H-pyrazol-3-ylamino)-2-(1-(4-fluorophenyl)-2-hydroxyethylamino)-5-nitrobenzonitrile] | 859

— patent US20090227648A1, “PYRAZOLE DERIVATIVES USEFUL FOR THE TREATMENT OF CANCER” (AstraZeneca AB, priority 2004, published 2009)
